These are literature values, as cited in US20250075209A1, “RNAS FOR COMPLEMENT INHIBITION” (Apellis Pharmaceuticals, Inc., priority 2021, published 2025).

Bridges are numbered along the chain shown (N, C = ends). [ ]: non-standard residue; d: D form. Bpa = N[C@@H](Cc1ccc(C(=O)c2ccccc2)cc1)C(=O)O; 1Nal = N[C@@H](Cc1cccc2ccccc12)C(=O)O; 2Nal = N[C@@H](Cc1ccc2ccccc2c1)C(=O)O; Igl = N[C@H](C(=O)O)C1Cc2ccccc2C1

The test system of this series is complement activation. The conditions noted are these: relative to compstatin amidated at the C-terminus; based on published data (WO2004/026328, WO2007044668, Mallik 2005, Katragadda 2006); cited from earlier work.
As to “Ac-ICV(1-Nal)QDWGAHRCT-COOH (Ac-ICV[1Nal]QDWGAHRCT-OH; not fully specified (bridges); printed as Ac-ICV(1-Nal)QDWGAHRCT-COOH; cysteine pairing not given here) [Ac V4(1-Nal)/H9A-OH]”, the Activity over compstatin is listed as 30xmore. Consider “Ac-ICV(2-Igl)QDWGAHRCT-CONH2 (Ac-ICV[Igl]QDWGAHRCT-NH2; not fully specified (bridges); printed as Ac-ICV(2-Igl)QDWGAHRCT-CONH2; cysteine pairing not given here) [Ac-V42Igl/H9A]”, for which the Activity over compstatin is reported as 39xmore. For the substance “Ac-ICV(2-Igl)QDWGAHRCT-COOH (Ac-ICV[Igl]QDWGAHRCT-OH; not fully specified (bridges); printed as Ac-ICV(2-Igl)QDWGAHRCT-COOH; cysteine pairing not given here) [Ac-V42Igl/H9A-OH]”, the Activity over compstatin is given as 37xmore. Regarding “Ac-ICV(2-Nal)CQDWGAHRCT-ONH2 (Ac-ICV[2Nal]QDWGAHRCT-NH2; ends and bridges not checked) [Ac-V4(2-Nal)/H9A]”, the Activity over compstatin is recorded as 99xmore. Take “Ac-ICV(2-Nal)QDWGAHRCT-COOH (Ac-ICV[2Nal]QDWGAHRCT-OH; not fully specified (bridges); printed as Ac-ICV(2-Nal)QDWGAHRCT-COOH; cysteine pairing not given here) [Ac V4(2-Nal)/H9A-OH]”: the Activity over compstatin is given as 38xmore. Take “Ac-ICV(Bpa)QDWGAHRCT-CONH2 (Ac-ICV[Bpa]QDWGAHRCT-NH2; not fully specified (bridges); printed as Ac-ICV(Bpa)QDWGAHRCT-CONH2; cysteine pairing not given here) [Ac-V4(Bpa)/H9A]”: the Activity over compstatin is recorded as 86xmore.

As for “Ac-ICV(Bpa)QDWGAHRCT-COOH (Ac-ICV[Bpa]QDWGAHRCT-OH; not fully specified (bridges); printed as Ac-ICV(Bpa)QDWGAHRCT-COOH; cysteine pairing not given here) [Ac-V4(Bpa)/H9A-OH]”, the Activity over compstatin is reported as 49xmore. For the substance Ac-ICVVQDWGHHRCT-CONH2 [Ac-compstatin], the Activity over compstatin is 3xmore. Consider “Ac-ICVWQDWGAHRCT-CONH2 (Ac-ICVWQDWGAHRCT-NH2; disulfide 2-12 (inferred)) [Ac-V4W/H9A]”, for which the Activity over compstatin is 45xmore. For the substance “Ac-ICVWQDWGAHRCdT-COOH [Ac-V4W/H9A/T13dT-OH]”, the Activity over compstatin was 55xmore. For Ac-ICVYQDWGAHRCT-CONH2 [Ac-V4Y/H9A], the Activity over compstatin is 14xmore. As for “H-GICV(6fW)QD(6fW)GAHRCTN-COOH (GICVXQDXGAHRCTN; not fully specified; 6-fluoro-Trp residues; C-terminal acid; SITE 1 N-term H - hydrogenated Glycine; SITE 5 6-fluoro-tryptophan; SITE 8 6-fluoro-tryptophan; SITE 15 C-term COOH - Asparagine carboxide) [+G/V4(6fW)/W7(6fW)H9A + N-OH]”, the Activity over compstatin is on record as 126xmore.
